“And” between values parts separate entries of the source, which are not always exact repeats. Equal values may be shown once.
Biological target: T1, mouse Mfsd2a (Mus musculus, UniProt Q9DA75)
T1 construct: expressed in transfected cells; host or cells: HEK293
T1 sequence (Q9DA75 1-534): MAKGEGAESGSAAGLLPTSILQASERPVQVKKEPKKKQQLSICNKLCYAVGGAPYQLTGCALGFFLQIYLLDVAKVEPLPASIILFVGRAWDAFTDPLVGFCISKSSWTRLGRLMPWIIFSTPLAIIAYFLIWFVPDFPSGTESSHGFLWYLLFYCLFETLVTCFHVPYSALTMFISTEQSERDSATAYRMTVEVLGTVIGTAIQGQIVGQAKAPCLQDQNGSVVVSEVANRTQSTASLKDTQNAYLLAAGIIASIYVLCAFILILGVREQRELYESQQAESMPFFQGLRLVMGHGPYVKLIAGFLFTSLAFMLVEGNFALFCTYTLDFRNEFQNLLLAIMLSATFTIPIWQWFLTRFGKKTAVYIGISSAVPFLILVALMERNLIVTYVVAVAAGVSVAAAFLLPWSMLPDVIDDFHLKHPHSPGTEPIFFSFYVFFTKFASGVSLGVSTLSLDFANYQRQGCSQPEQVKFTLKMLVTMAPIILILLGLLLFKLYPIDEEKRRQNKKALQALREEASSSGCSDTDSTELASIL
Assay: Cell-based free fatty acid transport/uptake in Mfsd2a expressing HEK293 cells (mass spectrometry, TLC; Table 1)
Conditions: Mfsd2a HEK293 cells, 100 uM fatty acid/BSA overnight
In short: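 HEK293 cells expressing mouse Mfsd2a, or mock controls, were incubated overnight with 100 μM BSA-complexed fatty acids. Lipids were extracted in hexane:isopropanol (3:2) and phospholipid species quantified by HPLC-MS/MS against spiked internal standards. For TLC, cells received 100 μM [^14C]-oleate overnight, and phospholipids and neutral lipids were resolved.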

For `CCCCCCCCCCCCCCCC(=O)O` [Palmitic acid], the “PE34p:2 in total phospholipid” value was 0.2893 mol percent and 0.2458 mol percent and 0.4295 mol percent, the “PE36:1 in total phospholipid” value was 1.713 mol percent and 1.465 mol percent and 1.861 mol percent and the “PE36:2 in total phospholipid” value was 2.152 mol percent and 2.192 mol percent and 2.267 mol percent. For the same compound, the “PE36:3 in total phospholipid” value was 0.4629 mol percent and 0.5112 mol percent and 0.4773 mol percent, the “PE36:4 in total phospholipid” value was 0.3125 mol percent and 0.2556 mol percent and 0.346 mol percent and the “PE36p:1 in total phospholipid” value was 0.5555 mol percent and 0.4227 mol percent and 0.5608 mol percent. The “PE36p:2 in total phospholipid” value was 0.7869 mol percent and 0.5996 mol percent and 0.6801 mol percent, the “PE36p:3 in total phospholipid” value was 0.8448 mol percent and 0.8061 mol percent and 1.169 mol percent and the “PE36p:4 in total phospholipid” value was 1.273 mol percent and 1.14 mol percent and 1.432 mol percent. For the same compound, the “PE38:1 in total phospholipid” value was 0.4976 mol percent and 0.3342 mol percent and 0.5727 mol percent, the “PE38:2 in total phospholipid” value was 0.3125 mol percent and 0.3342 mol percent and 0.3579 mol percent and the “PE38:3 in total phospholipid” value was 0.6133 mol percent and 0.6685 mol percent and 0.6204 mol percent. For the same compound, the “PE38:4 in total phospholipid” value was 0.9026 mol percent and 0.9732 mol percent and 1.301 mol percent, the “PE38:5 in total phospholipid” value was 0.486 mol percent and 0.4227 mol percent and 0.5488 mol percent and the “PE38:6 in total phospholipid” value was 0.2083 mol percent and 0.1081 mol percent and 0.1432 mol percent. For the same compound, the “PE38:7 in total phospholipid” value was 0.08101 mol percent and 0.07864 mol percent and 0.04773 mol percent, the “PE38p:0 in total phospholipid” value was 0.1273 mol percent and 0.118 mol percent and 0.1074 mol percent and the “PE38p:1 in total phospholipid” value was 0.1504 mol percent and 0.1769 mol percent and 0.2744 mol percent. For the same compound, the “PE38p:2 in total phospholipid” value was 0.3935 mol percent and 0.2359 mol percent and 0.3937 mol percent, the “PE38p:3 in total phospholipid” value was 0.9721 mol percent and 0.8651 mol percent and 0.9426 mol percent and the “PE38p:4 in total phospholipid” value was 0.9142 mol percent and 0.9437 mol percent and 1.086 mol percent. The “PE38p:5 in total phospholipid” value was 0.9489 mol percent and 0.7569 mol percent and 0.8591 mol percent, the “PE38p:6 in total phospholipid” value was 1.215 mol percent and 1.298 mol percent and 1.348 mol percent and the “PE40:3 in total phospholipid” value was 0.08101 mol percent and 0.0983 mol percent and 0.1074 mol percent. For the same compound, the “PE40:4 in total phospholipid” value was 0.1157 mol percent and 0.118 mol percent and 0.1909 mol percent, the “PE40:5 in total phospholipid” value was 0.1504 mol percent and 0.1868 mol percent and 0.1909 mol percent and the “PE40:6 in total phospholipid” value was 0.4282 mol percent and 0.3539 mol percent and 0.3699 mol percent. For the same compound, the “PE40p:4 in total phospholipid” value was 0.1736 mol percent and 0.1769 mol percent and 0.3102 mol percent, the “PE40p:5 in total phospholipid” value was 0.2893 mol percent and 0.2064 mol percent and 0.3341 mol percent and the “PE40p:6 in total phospholipid” value was 0.6018 mol percent and 0.6095 mol percent and 0.4892 mol percent. The “PE42:7 in total phospholipid” value was 0.06943 mol percent and 0.05898 mol percent and 0.09545 mol percent, the “PE42p:4 in total phospholipid” value was 0.09258 mol percent and 0.1081 mol percent and 0.1074 mol percent and the “PI 32:1 in total phospholipid” value was 0.01515 mol percent and 0.01528 mol percent and 0.0154 mol percent. For the same compound, the “PI 32:2 in total phospholipid” value was 0.002439 mol percent and 0.002103 mol percent and 0.001294 mol percent, the “PI 34:1 in total phospholipid” value was 0.1103 mol percent and 0.114 mol percent and 0.1029 mol percent and the “PI 34:2 in total phospholipid” value was 0.0629 mol percent and 0.06982 mol percent and 0.06458 mol percent. For the same compound, the “PI 36:1 in total phospholipid” value was 0.1503 mol percent and 0.1538 mol percent and 0.1543 mol percent, the “PI 36:2 in total phospholipid” value was 0.3719 mol percent and 0.3721 mol percent and 0.3402 mol percent and the “PI 36:3 in total phospholipid” value was 0.1684 mol percent and 0.1865 mol percent and 0.158 mol percent. The “PI 36:4 in total phospholipid” value was 0.03864 mol percent and 0.0429 mol percent and 0.03921 mol percent, the “PI 38:2 in total phospholipid” value was 0.3564 mol percent and 0.36 mol percent and 0.319 mol percent and the “PI 38:3 in total phospholipid” value was 1.005 mol percent and 1.022 mol percent and 0.9636 mol percent. For the same compound, the “PI 38:4 in total phospholipid” value was 0.3607 mol percent and 0.3811 mol percent and 0.3385 mol percent, the “PI 38:5 in total phospholipid” value was 0.05186 mol percent and 0.04823 mol percent and 0.04943 mol percent and the “PI 38:6 in total phospholipid” value was 0.006419 mol percent and 0.006589 mol percent and 0.006082 mol percent. The “PI 40:3 in total phospholipid” value was 0.02721 mol percent and 0.02636 mol percent and 0.02342 mol percent, the “PI 40:4 in total phospholipid” value was 0.01374 mol percent and 0.0136 mol percent and 0.01449 mol percent and the “PI 40:5 in total phospholipid” value was 0.006419 mol percent and 0.00673 mol percent and 0.006341 mol percent. For the same compound, the “PI 40:6 in total phospholipid” value was 0.008088 mol percent and 0.005328 mol percent and 0.005047 mol percent, the “PS(sum) in total phospholipid” value was 2.6184 mol percent and 2.721 mol percent and 2.696 mol percent and the “PS:34:1 in total phospholipid” value was 0.4034 mol percent and 0.439 mol percent and 0.4315 mol percent. For the same compound, the “PS:34:2 in total phospholipid” value was 0.04042 mol percent and 0.03854 mol percent and 0.04968 mol percent, the “PS:36:1 in total phospholipid” value was 1.063 mol percent and 1.166 mol percent and 1.107 mol percent and the “PS:36:2 in total phospholipid” value was 0.3989 mol percent and 0.3832 mol percent and 0.387 mol percent. For the same compound, the “PS:36:3 in total phospholipid” value was 0.02599 mol percent and 0.02171 mol percent and 0.02615 mol percent, the “PS:36:4 in total phospholipid” value was 0.004537 mol percent and 0.005316 mol percent and 0.006102 mol percent and the “PS:38:2 in total phospholipid” value was 0.2194 mol percent and 0.2087 mol percent and 0.231 mol percent. For the same compound, the “PS:38:3 in total phospholipid” value was 0.1497 mol percent and 0.1471 mol percent and 0.1469 mol percent, the “PS:38:4 in total phospholipid” value was 0.05651 mol percent and 0.07531 mol percent and 0.06102 mol percent and the “PS:38:5 in total phospholipid” value was 0.007425 mol percent and 0.01063 mol percent and 0.01438 mol percent. For the same compound, the “PS:40:4 in total phospholipid” value was 0.07342 mol percent and 0.05892 mol percent and 0.05971 mol percent, the “PS:40:5 in total phospholipid” value was 0.04908 mol percent and 0.05626 mol percent and 0.06189 mol percent and the “PS:40:6 in total phospholipid” value was 0.1089 mol percent and 0.09746 mol percent and 0.1011 mol percent. For the same compound, the “PS:40:7 in total phospholipid” value was 0.01732 mol percent and 0.0124 mol percent and 0.01264 mol percent, the “Total PC + lysoPC in total phospholipid” value was 67.6 mol percent and 68.89 mol percent and 64.689 mol percent and the “Total PE + lysoPE in total phospholipid” value was 26.98 mol percent and 25.52 mol percent and 29.98 mol percent. The “Total PI + lysoPI in total phospholipid” value was 2.796 mol percent and 2.866 mol percent and 2.638 mol percent.

From US10175256B2, “Compositions and methods utilizing lysophosphatidylcholine scaffolds” (National University Of Singapore, priority 2013, dated 2019)
